Test results as given in patent publication US20260076372A1, “SPRAYABLE ANTIFUNGAL COMPOSITION FOR USE IN THE FIELD OF AGRICULTURE, AND ASSOCIATED METHOD AND USE” (GAIAGO, priority 2022, published 2026).

What was measured:
[1] = system: Alternaria solani; experiment: in vitro 96-well micro-titration test on Alternaria solani spores; type: cell-based
[2] = system: Fusarium graminearum; experiment: microbe, parasite or virus in culture; type: cell-based
[3] = system: Septoria tritici (Zymoseptoria tritici); experiment: in vitro 96-well micro-titration test on Septoria tritici / Zymoseptoria tritici; type: cell-based
[4] = system: Pythium ultimum; experiment: in vitro test on P. ultimum
Method: The evaluations were performed with a 96-well micro-titration test to evaluate the in vitro fungicidal activity of each solution.
Three repetitions (wells) were carried out. The value of the concentration making it possible to inhibit the growth of each pathogen (EC50) to 50% was determined using the optical density measurement.

SMILES: C[C@@H]1CC[C@@]2(OC1)O[C@H]1C[C@H]3[C@@H]4CC[C@@H]5C[C@@H](O)CC[C@]5(C)[C@H]4CC[C@]3(C)[C@H]1[C@@H]2C [smilagenin, (25R)-5beta-Spirostan-3beta-ol]
- inhibition (%) of A. solani growth ([1]; 0.0064 μg/ml or ppm in water): 7.9%
- inhibition (%) of A. solani growth ([1]; 0.032 μg/ml or ppm in water): 10.1%
- inhibition (%) of A. solani growth ([1]; 0.16 μg/ml or ppm in water): 19.6%
- inhibition (%) of A. solani growth ([1]; 0.8 μg/ml or ppm in water): 22.6%
- inhibition (%) of A. solani growth ([1]; 4 μg/ml or ppm in water): 28.0%
- inhibition (%) of A. solani growth ([1]; 20 μg/ml or ppm in water): 29.3%
- inhibition (%) of A. solani growth ([1]; 40 μg/ml or ppm in water): 30%
- inhibition of Fusarium graminearum ([2]; 0.0064 μg/ml or ppm): 5.00%
- inhibition of Fusarium graminearum ([2]; 0.032 μg/ml or ppm): −2.60%
- inhibition of Fusarium graminearum ([2]; 0.16 μg/ml or ppm): −0.80%
- inhibition of Fusarium graminearum ([2]; 0.8 μg/ml or ppm): 2.40%
- inhibition of Fusarium graminearum ([2]; 4 μg/ml or ppm): 1.50%
- inhibition of Fusarium graminearum ([2]; 20 μg/ml or ppm): −8.70%
- inhibition of Fusarium graminearum ([2]; 100 μg/ml or ppm): 2.00%
- EC95 (μg/ml or ppm) ([2]; Fusarium graminearum, Table 9): >100 μg/ml or ppm
- EC50 ([2]; Fusarium graminearum, read-out: EC50 (μg/ml or ppm)): > 100 µg/mL
- % inhibition of pathogen growth (S. tritici) ([3]; 0.0064 μg/ml or ppm): −3.90%
- % inhibition of pathogen growth (S. tritici) ([3]; 0.032 μg/ml or ppm): −2.30%
- % inhibition of pathogen growth (S. tritici) ([3]; 0.16 μg/ml or ppm): −1.90%
- % inhibition of pathogen growth (S. tritici) ([3]; 0.8 μg/ml or ppm): −9.50%
- % inhibition of pathogen growth (S. tritici) ([3]; 4 μg/ml or ppm): 0.00%
- % inhibition of pathogen growth (S. tritici) ([3]; 20 μg/ml or ppm): −2.10%
- % inhibition of pathogen growth (S. tritici) ([3]; 100 μg/ml or ppm): −0.20%
- EC50 ([3]; Zymoseptoria tritici, S. tritici, Table 12, read-out: EC50 (μg/ml or ppm)): > 100 µg/mL
- inhibition of P. ultimum ([4]; 0.0064 μg/ml or ppm): −6.70%
- inhibition of P. ultimum ([4]; 0.032 μg/ml or ppm): 0.00%
- inhibition of P. ultimum ([4]; 0.16 μg/ml or ppm): −0.60%
- inhibition of P. ultimum ([4]; 0.8 μg/ml or ppm): 0.10%
- inhibition of P. ultimum ([4]; 4 μg/ml or ppm): −3.40%
- inhibition of P. ultimum ([4]; 20 μg/ml or ppm): −0.10%
- inhibition of P. ultimum ([4]; 100 μg/ml or ppm): 0.00%
- EC50 ([4]; Globisporangium ultimum, read-out: EC50 (μg/ml or ppm)): > 100 µg/mL
- EC95 (μg/ml or ppm) ([4]; P. ultimum, Table 14): >100 μg/ml or ppm
